From article PMC10629583, “Specific inhibition of an anticancer target, polo-like kinase 1, by allosterically dismantling its mechanism of substrate recognition” (Proceedings of the National Academy of Sciences of the …, 2023)

Experiments:
L363 cells = assay: MTS cell viability assay, L363 cells; format: cell-based; conditions: 48 h treatment
[1] = Conversion of Allopole to Allopole-A in buffers ± GSH (LC-MS); format: physicochemical; conditions: room temperature, 1 h; for Compounds detected / Compounds detected, % of total / Compounds detected, pk area: 100 µM Allopole
Experimental: High-performance liquid chromatography (HPLC)/high-resolution mass spectrometry was used to determine the products derived from investigational drugs incubated under various conditions by measuring their exact masses. Thereafter, 20 μL aliquots of several drug preparations in either DMSO or aqueous reaction solutions were diluted 2:1 in ethanol, followed by centrifugation at 15,000 × g for 5 min. The supernatant was then injected on a Thermo Vanquish liquid chromatograph coupled to a Thermo Q Exactive Orbitrap mass spectrometer (Thermo Fisher Scientific). The conditions for the analysis are listed as follows.
The analytes were identified using the Dmass between the predicted and measured exact monoisotopic mass for the protonated molecular ions applied to the empirical formula algorithm in the Qual Browser application of the Xcalibur software (Themo Scientific). Selected ions from the base peak chromatogram were extracted for integration of peak areas. The relative amounts of each analyte to the sum total were calculated to estimate conversion of and prodrug under the specific conditions to breakdown products.
Table S2. Conversion of Allopole to Allopole-A under various buffer conditions, room
Buffers* Compounds detected
Allopole-A Allopole-A (-S) Allopole (-Cl) Allopole
* Buffer #1: 20 mM Tris (pH 8.0), 50 mM NaCl, 1 mM EDTA, 1% DMSO
Buffer #2: 1 x PBS (pH 7.4), 1 mM EDTA, 1% DMSO
Buffer #3: 20 mM HEPES (pH 7.0), 50 mM NaCl, 1 mM EDTA, 1% DMSO
Samples were prepared by incubating 100 µM of Allopole in the indicated buffer conditions in the
absence or presence of 5 mM GSH for 1 h at room temperature. Note that in the absence of GSH,

5-HT1B = biological target: T1, 5-HT1B (Homo sapiens, UniProt P28222); assay: PDSP off-target binding screen; conditions: for inhibition at 10 µM: read-out: Primary screen AVE(%inhib)±SD; for Ki: read-out: Secondary screen Ki
T1 construct: NIMH Psychoactive Drug Screening Program (UNC)
T1 sequence (P28222 whole entry): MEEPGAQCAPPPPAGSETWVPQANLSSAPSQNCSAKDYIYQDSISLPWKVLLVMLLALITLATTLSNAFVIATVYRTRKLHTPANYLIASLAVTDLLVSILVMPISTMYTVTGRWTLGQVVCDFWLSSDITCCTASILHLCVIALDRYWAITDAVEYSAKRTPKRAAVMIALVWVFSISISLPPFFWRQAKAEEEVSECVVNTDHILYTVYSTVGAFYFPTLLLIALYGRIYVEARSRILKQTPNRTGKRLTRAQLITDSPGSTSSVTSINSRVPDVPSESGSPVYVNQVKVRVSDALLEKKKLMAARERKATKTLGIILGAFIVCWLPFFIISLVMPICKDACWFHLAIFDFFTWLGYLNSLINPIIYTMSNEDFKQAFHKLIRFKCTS
Text: (§1) PDSP no. Compound Interactions (Ki, µM)
(§2) 60477 Allopole-A None observed.
(§3) trigger a secondary screen at that receptor.

5-HT1D = biological target: T2, 5-HT1D (Homo sapiens, UniProt P28221); assay: PDSP off-target binding screen; conditions: for inhibition at 10 µM: read-out: Primary screen AVE(%inhib)±SD; for Ki: read-out: Secondary screen Ki
T2 construct: NIMH Psychoactive Drug Screening Program (UNC)
T2 sequence (P28221 whole entry): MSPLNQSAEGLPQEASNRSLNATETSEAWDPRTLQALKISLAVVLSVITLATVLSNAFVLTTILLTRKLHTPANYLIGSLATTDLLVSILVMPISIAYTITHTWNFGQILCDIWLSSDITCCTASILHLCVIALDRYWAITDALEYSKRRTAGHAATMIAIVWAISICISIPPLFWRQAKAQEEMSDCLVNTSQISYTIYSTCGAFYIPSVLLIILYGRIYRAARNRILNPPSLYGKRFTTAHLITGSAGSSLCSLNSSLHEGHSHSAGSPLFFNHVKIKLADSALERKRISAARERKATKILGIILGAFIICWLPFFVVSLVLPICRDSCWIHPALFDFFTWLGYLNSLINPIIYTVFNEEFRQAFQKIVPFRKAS
Text: as §1, §2, §3

5-HT1E = biological target: T3, 5-HT1E (Homo sapiens, UniProt P28566); assay: PDSP off-target binding screen; conditions: for inhibition at 10 µM: read-out: Primary screen AVE(%inhib)±SD; for Ki: read-out: Secondary screen Ki
T3 construct: NIMH Psychoactive Drug Screening Program (UNC)
T3 sequence (P28566 whole entry): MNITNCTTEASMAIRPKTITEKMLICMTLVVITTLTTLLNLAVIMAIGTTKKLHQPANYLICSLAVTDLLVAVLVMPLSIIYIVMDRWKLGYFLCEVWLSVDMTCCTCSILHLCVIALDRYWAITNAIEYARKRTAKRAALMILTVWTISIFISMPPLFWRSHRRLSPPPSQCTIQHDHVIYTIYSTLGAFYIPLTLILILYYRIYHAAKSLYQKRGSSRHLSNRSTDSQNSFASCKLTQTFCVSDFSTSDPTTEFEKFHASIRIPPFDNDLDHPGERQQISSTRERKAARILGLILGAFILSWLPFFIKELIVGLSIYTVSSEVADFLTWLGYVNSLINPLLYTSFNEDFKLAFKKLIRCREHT
Text: as §1, §2, §3

Alpha1A = biological target: T4, Alpha1A (Homo sapiens, UniProt P35348); assay: PDSP off-target binding screen; conditions: for inhibition at 10 µM: read-out: Primary screen AVE(%inhib)±SD; for Ki: read-out: Secondary screen Ki
T4 sequence (P35348 1-466): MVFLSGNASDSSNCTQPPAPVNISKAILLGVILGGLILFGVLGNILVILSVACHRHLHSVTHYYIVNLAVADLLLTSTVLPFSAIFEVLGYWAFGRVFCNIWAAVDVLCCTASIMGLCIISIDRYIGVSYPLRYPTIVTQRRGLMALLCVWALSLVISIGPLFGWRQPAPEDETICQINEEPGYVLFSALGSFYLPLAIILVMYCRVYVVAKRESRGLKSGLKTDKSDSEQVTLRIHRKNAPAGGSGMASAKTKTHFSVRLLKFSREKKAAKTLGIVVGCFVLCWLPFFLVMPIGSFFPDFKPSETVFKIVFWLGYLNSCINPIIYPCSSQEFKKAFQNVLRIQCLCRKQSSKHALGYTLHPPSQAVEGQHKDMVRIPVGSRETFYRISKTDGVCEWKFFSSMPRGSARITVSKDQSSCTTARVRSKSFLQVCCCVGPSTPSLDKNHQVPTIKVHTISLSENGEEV
Text: as §1, §2, §3

Alpha2C = biological target: T5, Alpha2C (Homo sapiens, UniProt P18825); assay: PDSP off-target binding screen; conditions: for inhibition at 10 µM: read-out: Primary screen AVE(%inhib)±SD; for Ki: read-out: Secondary screen Ki
T5 sequence (P18825 1-462): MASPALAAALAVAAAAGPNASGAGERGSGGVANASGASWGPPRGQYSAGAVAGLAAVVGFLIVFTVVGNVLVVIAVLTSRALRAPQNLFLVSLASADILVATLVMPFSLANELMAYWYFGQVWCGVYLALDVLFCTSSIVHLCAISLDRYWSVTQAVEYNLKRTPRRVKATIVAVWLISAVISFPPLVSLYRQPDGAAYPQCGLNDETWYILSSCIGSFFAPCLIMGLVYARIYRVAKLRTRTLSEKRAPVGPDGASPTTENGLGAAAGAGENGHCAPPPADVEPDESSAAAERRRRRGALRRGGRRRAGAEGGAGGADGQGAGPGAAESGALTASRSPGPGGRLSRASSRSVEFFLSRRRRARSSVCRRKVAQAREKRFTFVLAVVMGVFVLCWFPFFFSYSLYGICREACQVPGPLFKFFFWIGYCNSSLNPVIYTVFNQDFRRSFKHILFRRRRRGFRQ
Text: as §1, §2, §3

DOR = DOR (Homo sapiens, UniProt P41143); assay: PDSP off-target binding screen; conditions: for inhibition at 10 µM: read-out: Primary screen AVE(%inhib)±SD; for Ki: read-out: Secondary screen Ki
DOR, sequence (P41143 whole entry): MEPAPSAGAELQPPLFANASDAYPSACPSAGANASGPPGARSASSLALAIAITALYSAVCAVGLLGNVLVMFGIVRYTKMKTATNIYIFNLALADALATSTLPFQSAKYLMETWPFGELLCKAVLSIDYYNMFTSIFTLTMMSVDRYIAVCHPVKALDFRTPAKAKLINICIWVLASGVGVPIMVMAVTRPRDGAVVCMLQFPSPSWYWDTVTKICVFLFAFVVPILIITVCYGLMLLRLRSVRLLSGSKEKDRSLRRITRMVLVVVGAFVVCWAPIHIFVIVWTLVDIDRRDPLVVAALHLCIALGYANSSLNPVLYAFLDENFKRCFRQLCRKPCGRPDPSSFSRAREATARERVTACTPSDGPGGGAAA
Text: as §1, §2, §3

MOR = MOR (Homo sapiens, UniProt P35372); assay: PDSP off-target binding screen; conditions: for inhibition at 10 µM: read-out: Primary screen AVE(%inhib)±SD; for Ki: read-out: Secondary screen Ki
MOR, sequence (P35372 whole entry): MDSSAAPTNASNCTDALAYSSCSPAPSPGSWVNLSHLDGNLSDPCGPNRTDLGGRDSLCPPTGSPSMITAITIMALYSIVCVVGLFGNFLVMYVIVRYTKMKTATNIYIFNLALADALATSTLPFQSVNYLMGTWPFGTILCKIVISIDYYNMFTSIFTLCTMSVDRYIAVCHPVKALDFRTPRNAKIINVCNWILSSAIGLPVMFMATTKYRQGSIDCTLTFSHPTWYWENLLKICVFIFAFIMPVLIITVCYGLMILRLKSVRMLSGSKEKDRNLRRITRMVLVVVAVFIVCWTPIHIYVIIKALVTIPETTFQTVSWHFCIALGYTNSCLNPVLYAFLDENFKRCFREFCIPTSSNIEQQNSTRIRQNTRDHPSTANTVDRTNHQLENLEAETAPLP
Text: as §1, §2, §3

5-HT2B = 5-HT2B (Homo sapiens, UniProt P41595); assay: PDSP off-target binding screen; conditions: for inhibition at 10 µM: read-out: Primary screen AVE(%inhib)±SD
5-HT2B, sequence (P41595 whole entry): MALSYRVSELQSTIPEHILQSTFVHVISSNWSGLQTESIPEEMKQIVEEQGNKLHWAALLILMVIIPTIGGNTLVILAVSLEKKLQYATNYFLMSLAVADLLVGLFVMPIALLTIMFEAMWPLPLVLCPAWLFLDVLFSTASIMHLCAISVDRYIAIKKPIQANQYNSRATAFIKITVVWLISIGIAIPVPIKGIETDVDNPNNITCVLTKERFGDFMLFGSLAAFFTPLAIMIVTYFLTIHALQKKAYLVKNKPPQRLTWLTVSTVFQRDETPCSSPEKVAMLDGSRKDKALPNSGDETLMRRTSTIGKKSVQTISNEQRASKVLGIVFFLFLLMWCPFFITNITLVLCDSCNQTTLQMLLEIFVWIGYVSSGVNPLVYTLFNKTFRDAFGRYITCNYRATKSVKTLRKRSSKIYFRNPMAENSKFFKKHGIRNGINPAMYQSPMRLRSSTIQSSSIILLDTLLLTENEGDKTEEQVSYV

[2] = Buffer #1 (20 mM Tris pH 8.0), no GSH
[3] = Buffer #2 (1 x PBS pH 7.4), no GSH
[4] = Buffer #3 (20 mM HEPES pH 7.0), no GSH

| Structure (SMILES) | Compounds detected [1, 2] [µmol/L] | Compounds detected, % of total [1, 2] [%] | Compounds detected, pk area [1, 2] | Compounds detected ([1]; Buffer #1 + 5 mM GSH) [µmol/L] | Compounds detected, % of total ([1]; Buffer #1 + 5 mM GSH) [%] | Compounds detected, pk area ([1]; Buffer #1 + 5 mM GSH) | Compounds detected [1, 3] [µmol/L] | Compounds detected, % of total [1, 3] [%] | Compounds detected, pk area [1, 3] | Compounds detected ([1]; Buffer #2 + 5 mM GSH) [µmol/L] | Compounds detected, % of total ([1]; Buffer #2 + 5 mM GSH) [%] | Compounds detected, pk area ([1]; Buffer #2 + 5 mM GSH) | Compounds detected [1, 4] [µmol/L] | Compounds detected, % of total [1, 4] [%] | Compounds detected, pk area [1, 4] | Compounds detected ([1]; Buffer #3 + 5 mM GSH) [µmol/L] | Compounds detected, % of total ([1]; Buffer #3 + 5 mM GSH) [%] | Compounds detected, pk area ([1]; Buffer #3 + 5 mM GSH) | inhibition at 10 µM (5-HT1B) [%] | Ki (5-HT1B) [µM] | other results |
| --- | --- | --- | --- | --- | --- | --- | --- | --- | --- | --- | --- | --- | --- | --- | --- | --- | --- | --- | --- | --- | --- |
| O=c1c2sc(Cl)cc2n2c(=S)[nH]nc2n1CC1CC1 [Allopole-A] | 1.3 | 1.3 | 9.61E+06 | 95.4 | 95.4 | 1.38E+09 | 0.8 | 0.8 | 4.90E+06 | 77.9 | 77.9 | 5.81E+08 | 1.9 | 1.9 | 1.56E+06 | 66.9 | 66.9 | 1.89E+08 | 17.7 ± 42.2 | > 10 | Cell efficacy (GI50) Mean ± SD (L363 cells): failed to induce any significant antiproliferation effect; Cell efficacy (GI50) Mean ± SD (L363 cells; listed as 19): N. S.; inhibition at 10 µM (5-HT1D): 22.5 ± 25.6%; Ki (5-HT1D): > 10 µM; inhibition at 10 µM (5-HT1E): 31.3 ± 7.6%; Ki (5-HT1E): > 10 µM; inhibition at 10 µM (Alpha1A): -9.4 ± 18%; Ki (Alpha1A): > 10 µM; inhibition at 10 µM (Alpha2C): 10.6 ± 4.2%; Ki (Alpha2C): > 10 µM; inhibition at 10 µM (DOR): -13.5 ± 6.8%; Ki (DOR): > 10 µM; inhibition at 10 µM (MOR): 30.8 ± 47.5%; Ki (MOR): > 10 µM; Ki (5-HT2B): > 10 µM; inhibition at 10 µM (5-HT2B): -17.7 ± 11.2% |
| Cn1cnc([N+](=O)[O-])c1Sc1nnc2n(CC3CC3)c(=O)c3sc(Cl)cc3n12 [Allopole] | 97.9 | 97.9 | 7.45E+08 | 0.1 | 0.1 | 8.76E+05 | 97.6 | 97.6 | 6.28E+08 | 0.0 | 0.0 | 2.41E+03 | 93.1 | 93.1 | 7.80E+07 | 0.0 | 0.0 | 9.35E+04 | 60.8 ± 40.9 | > 10 | GI50 (L363 cells; Homo sapiens, L-363, 48 h, read-out: Cell efficacy (GI50) Mean ± SD): 4.1 µM; Unmasking of the prodrug by GSH (in words) ([1]; 5 mM GSH): completely unmask; Stability in buffer (in words) ([1]; absence of GSH): remains stable; inhibition at 10 µM (5-HT1D): 32.8 ± 27.1%; Ki (5-HT1D): > 10 µM; inhibition at 10 µM (5-HT1E): 22.2 ± 10.5%; Ki (5-HT1E): > 10 µM; inhibition at 10 µM (Alpha1A): 40.6 ± 10.5%; Ki (Alpha1A): > 10 µM; inhibition at 10 µM (Alpha2C): 6.4 ± 7.5%; Ki (Alpha2C): > 10 µM; inhibition at 10 µM (DOR): -1 ± 4.8%; Ki (DOR): > 10 µM; inhibition at 10 µM (MOR): 40.6 ± 51%; Ki (MOR): > 10 µM; Ki (5-HT2B): > 10 µM; inhibition at 10 µM (5-HT2B): -0.5 ± 5% |
